Entries after “also recorded” stand apart in the source; their conditions may differ.
Tested on: Pseudomonas aeruginosa ATCC 15442
Assay: Anti-Bacterial Test Method: log reduction of bacterial colonies after 3 days exposure in water
Format: cell-based
Method: Materials were dissolved in ethanol (or deionized water in the case of water soluble preservatives) to a concentration of 100 mg/ml. 30 μl of this solution added to 3 ml deionized water gave a final concentration of 0.1%. (If necessary, solutions are sonicated for 15 minutes and allowed to equilibrate back to ambient temperature.) Bacterial cultures were added to this solution, mixed on a vortex mixer and a dock started. After 3 days, an aliquot is sampled and added to a D/E (Dey/Engley) neutralization broth (marketed by Becton and Dickinson Cγ) and plated onto solid media. Bacterial colonies are counted after overnight incubation. The selected indicator microorganism was Pseudomonas aeruginosa ATCC 15442.
All results are quoted as the reduction in activity expressed as a logarithm to the base 10 measured after 3 days incubation and compared with the inocculum unless otherwise noted.
All percentages are quoted as weight per unit volume (e.g. g/ml) unless indicated otherwise.

OCCOc1ccccc1 [phenoxyethanol, 2-Phenoxyethanol]
log reduction, compared with the ethanol solvent control, after 3 days (0.1% phenoxyethanol alone): 0.4 log

OCc1ccccc1 [Benzyl alcohol]
Log Reduction after 3 days (0.025% Benzyl alcohol alone): 0.2 log

CCOC(=O)c1ccccc1C(=O)OCC [diethyl phthalate]
effect of addition of diethyl phthalate on antibacterial / preservative efficacy (0.1% or 0.2% diethyl phthalate added to fragrance ingredient + preservative mixture): detrimental to antibacterial efficacy; also recorded: detrimental to preservative efficacy

Cl/C=C\C[N+]12CN3CN(CN(C3)C1)C2.[Cl-] [Dowicil 200, cis-1-3-chloroallyl-3,5,7-triaza-1-azoniaadamantane chloride]
log reduction, compared with the ethanol solvent control (0.05% Dowicil 200 alone): 1.3 log | log reduction after 3 days vs Inocculum (0.05% Dowicil (line of Test Example 14 without fragrance)): 0.7 log

Source: US20080234173A1, “PRESERVATIVE COMPOSITIONS” (TAKASAGO INTERNATIONAL CORPORATION, priority 2007, published 2008)
